Assay results as given in US12419892B2, “Pharmaceutical compositions comprising nilotinib” (XSPRAY PHARMA AB, priority 2023, dated 2025).

What was measured:
[1] = cited from earlier work
[2] = Genotoxicity classification of Nilotinib impurity A; conditions: not disclosed
Text: Regulatory agencies, such as the FDA and the European Medicines Agency (EMA), have specific guidelines and regulations for assessing and managing the risks associated with genotoxic compounds, particularly in the context of pharmaceuticals and chemical safety.

[3] = literature (Li, Singamsetti, Puppala); cited from earlier work

Row | SMILES | pKa [1] | genotoxicity, internal evaluations [2] | genotoxicity classification [3]
1 | O=C1O[C@H]([C@@H](O)CO)C(O)=C1O [Ascorbic acid, ascorbic acid] | about 4.2 | – | –
2 | Cc1cn(-c2cc(N)cc(C(F)(F)F)c2)cn1 [Nilotinib impurity A, 3-(4-methylimidazol-1-yl)-5-(trifluoromethyl) aniline] | – | may not be genotoxic | potentially genotoxic or mutagenic
